Consider one molecule from patent US10993999B2, “Materials and methods for producing improved lentiviral vector particles” (IMMUNE DESIGN CORP., priority 2012, dated 2021).

The test system of the experiment is Human PBMCs (DCs, B-cells, T-cells). Description: Transduction specificity in GM-CSF/IL-4 treated human PBMC culture. The following applies: all cell populations.

Regarding `Cc1ccnc2c1NC(=O)c1cccnc1N2C1CC1` [Nevirapine], the “effect of RT inhibitor on transduction” value was “completely ablated”.
